The test system of experiment [1] is platelet thrombus (laser micro-injury of small blood vessel). The experiment can be described thus: biolaser model of experimental thrombosis (rabbit ear chamber). It counts as in vivo. The following applies: combined with anagrelide at a lower than threshold level. The source says:
These compounds were studied in vivo in an animal model for experimental thrombosis. The use of this model is described in detail in the reprint, Use of the Biolaser in the Evaluation of Anti-Thrombotic Agents, J. S. Fleming et al. "Platelets and Thrombosis", eds. S. Sherry and A. Scriabrine, University Park Press, 1974, Baltimore, which is incorporated herein by reference.
In brief, a micro-injury is created by a laser beam focused through a microscope onto the endothelium surface of a small blood vessel in a surgically implanted ear chamber of a rabbit. The injury induces the rapid formation of a platelet thrombis which can be measured. […] Prostacyclin is active in the biolaser model when infused intraveneously. The results of these tests preliminarily indicate that there is a super additive interaction between anagrelide and the compounds of this invention. […] To date, no other compounds have undergone significant in vivo analysis in the rabbit ear test.

Experiment [2] shares this test system. The following applies: cited from earlier work; for inhibition of thrombosis (in words): general statement on potent inhibitors of platelet aggregation.

Data on three molecules can be found in US4436934A, “Bicyclic prostaglandin analogs and method of synthesis” (Iowa State University Research Foundation, Inc., priority 1981, dated 1984).

Take `CCCCCC(O)C#CC1C2CCC(C2)C1C/C=C/CCCC(=O)OC` (stereo not shown) [Example 2]: in experiment [1], the “reduction in thrombosis, combination with anagrelide (in words)” value is listed as “substantial reduction in thrombosis”.

For `O=C1CN2Cc3c(ccc(Cl)c3Cl)N=C2N1` [anagrelide], in experiment [2], the “inhibition of thrombosis (in words)” value was “significant inhibition of this kind of thrombosis”. Turning to `CCCCC[C@H](O)/C=C/[C@@H]1[C@H]2C/C(=C/CCCC(=O)O)O[C@H]2C[C@H]1O` [prostacyclin], the “inhibition of thrombosis (in words)” value in experiment [2] was “significant inhibition of this kind of thrombosis”. Also, in experiment [2] (infused intravenously), the “activity in the biolaser model (in words)” value is reported as “active”.
